Measurements from ChEMBL document CHEMBL5620438, “Noducyclamides A1-A4, B1, and B2 from the Cyanobacterium Nodularia sp. NIES-3585” (J Nat Prod, 2024).
In brackets after ≈: the same amount, converted by molar mass. Activity calls are given as the source filed them. The calls are words filed in the database; no cut-off is given here.

What was measured:
MCF7 [1] = test: Cytotoxicity against human MCF7 cells assessed as decrease in cell viability incubated for 72 hrs by MTT assay; assay type: functional, cell-based; conditions: MCF7, 72 h
MCF7 [2] = test: Synergistic cytotoxicity against human MCF7 cells assessed as reduction in cell viability incubated for 72 hrs by MTT assay in presence of Noducyclamide B1; assay type: functional, cell-based

Structure (SMILES): CCCCCCC[C@@H]1CC(=O)N[C@@H](C(C)C)C(=O)N[C@H]([C@@H](O)C(C)C)C(=O)N[C@@H](C)C(=O)N[C@H]([C@@H](O)C(C)C)C(=O)N[C@@H](CCC(N)=O)C(=O)N(C)[C@@H]([C@@H](C)CC)C(=O)N[C@H](CC(N)=O)C(=O)N[C@H]([C@H](C)O)C(=O)N2C[C@H](O)C[C@H]2C(=O)N[C@H](C(C)C)C(=O)N[C@@H]([C@@H](C)O)C(=O)N1
- IC50 (MCF7 [1]): 3 µg/mL (≈ 2.17 µM)

Structure (SMILES): CCCCCCC[C@@H]1CC(=O)N[C@@H](CCC(N)=O)C(=O)N2C[C@H](O)C[C@H]2C(=O)N2CCC[C@H]2C(=O)N[C@@H](Cc2ccc(O)cc2)C(=O)N[C@H](CC(C)C)C(=O)N[C@@H](C(C)C)C(=O)N[C@H](C(C)(C)O)C(=O)N[C@@H](CC(C)C)C(=O)NCC(=O)N1
- IC50 (MCF7 [1]): 9.6 µg/mL (≈ 8.22 µM)
- Activity (MCF7 [2]): inactive

Structure (SMILES): CCCCCCC[C@@H]1CC(=O)N[C@@H](CCC(N)=O)C(=O)N2C[C@H](O)C[C@H]2C(=O)N2C[C@H](O)C[C@H]2C(=O)N[C@@H](Cc2ccc(O)cc2)C(=O)N[C@H](CC(C)C)C(=O)N[C@@H](C(C)C)C(=O)N[C@H](C(C)(C)O)C(=O)N[C@@H](CC(C)C)C(=O)NCC(=O)N1
- IC50 (MCF7 [1]): 18 µg/mL (≈ 15.2 µM)
- Activity (MCF7 [2]): inactive
